Measurements: EP4458977A1, “SELF-ASSEMBLING PEPTIDE AMPHIPHILES AS RETROVIRAL TRANSDUCTION ENHANCERS” (Max-Planck-Gesellschaft zur Förderung der Wissenschaften …, priority 2023, dated 2024)
Values joined by “and” are separate entries in the source; they are usually repeats but may differ in a detail not shown here. Equal values may be shown once. “Also recorded” adds a separate entry of the source. Read-outs that look alike come from different tables or passages of the source. Where a SMILES comes first, the peptide text is derived from it. The star is where a group is joined. X1 = CC/C=C\C/C=C\C/C=C\C/C=C\C/C=C\CCCC(=O)*; 2‑naphthylmethyl = c1ccc2cc(C*)ccc2c1; Palmitoyl = CCCCCCCCCCCCCCCC(=O)*; Lauroyl = CCCCCCCCCCCC(=O)*; Nonanoyl = CCCCCCCCC(=O)*

Legend:
[1] = ATR-FT-IR determination of β-sheet content; format: physicochemical; conditions: 1 mg/mL in PBS lyophilized; integral at 1630 cm^-1 relative to 1650-1700 cm^-1
In short: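 From second-derivative spectra, β-sheet amount is the 1630 cm-1 integral over the 1650-1700 cm-1 (native) region. Spectra were taken on solid, lyophilized fibrils via diamond-crystal ATR, averaging 64 scans at 2 cm^-1 resolution.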

HeLa cells = assay: Confocal laser scanning microscopy and degradation study with PA library and HeLa cells; format: cell-based; conditions: for association with cellular membranes: 2 µg added to 20.000 HeLa cells, 30 min; for degradability (in words) / Degradability / % (rel. to initial particles > 10 µm^2): HeLa cells; for degradability (in words): 3 days; for Degradability / % (rel. to initial particles > 10 µm^2): 3 d relative to 30 min; for aggregate number decreases / degraded in presence of HeLa cells within 3 days: d3 relative to d0
In short: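 HeLa cells (20,000/well) got Proteostat-stained PAs (2 µg peptide per 20.000 cells) with Hoechst nuclear stain, 30 min at 37°C, PBS-washed, then held 3 d at 37°C unwashed. Confocal imaging at d0 and d3 counted aggregates >10 µm^2 in 1008 × 1008 µm, three technical replicates. Degradation taken as d3/d0 aggregate number.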

HIV-1 = conditions: for Infectivity enhancing N fold at 1.3 µM: relative to virus only; for enhancement of HIV-1 infection / transduction (in words): 6.5 µM, 1.3 µM, 0.26 µM;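 for all read-outs here: TZM-bl reporter cells exposed to HIV-1 with peptide fibrils, infection read out as β-galactosidase luminescence, compared with virus alone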
Procedure: HIV-1 Infection Assay with TZM-bl cells: The effect of peptide fibrils on HIV-1 infection was studied via a luminescence assay for β-galactosidase, which was reported by TZM-bl cells upon infection. The HIV-1 infection assay was conducted in three technical replicates and repeated in three independent experiments unless stated otherwise.

[2] = Zeta-potential measurement (dynamic light scattering); format: physicochemical; conditions: for Count Rate / kcps: derived count rate of scattered light during zeta-potential measurements
Procedure: Zeta-potential: 60 µL of the peptides (1 mg mL-1) were diluted in 600 µL, 1 mM KCI solution and placed in a disposable folded capillary cuvette. All zeta-potential measurements were conducted by dynamic light scattering technology (Zetasizer, Malvern Instruments) and in triplicates for each sample. The derived count rate of the zeta potential measurement was used as information on the light scattering intensity and turbidity of the sample as a further indicator for microscopic aggregation.

[3] = Thioflavin T (ThT) fluorescence assay; format: physicochemical; conditions: relative to PBS control
Procedure: Transmission electron microscopy (TEM) measurements, Thioflavin (ThT), zeta-potential measurements for fibril characterization were prepared and conducted according to prior art procedures. […] Fibrils were defined as distinct, if no visible structures could be identified in fluorescence and brightfield microscopy. A peptide fibril was considered as ThT-active if the fluorescence intensity was at least twice as strong compared to the control (PBS containing 10% DMSO).

[4] = Zeta-potential measurement (dynamic light scattering); format: physicochemical
[5] = Fluorescence microscopy of ThT-stained fibrils (µm-sized aggregates); format: physicochemical; conditions: for fluorescent, µm-sized aggregates (ThT staining): 1 mg/mL stained with 50 µM ThT
In short: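 Fibrils (1 mg mL^-1) mixed 1:9 with 50 µM ThT, giving 0.1 mg mL^-1 stained fibrils on glass. Imaged under 10x air objective with excitation 480/40 nm and emission 527/30 nm. Fibrils called distinct when no visible structures appeared in fluorescence or brightfield.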

[6] = TEM of peptide assemblies (fibril formation / assembly); format: physicochemical; parameters: key to Fibril Formation: "1" means fibril formation observed; "0" means no fibrils observed; conditions: for TEM morphology (in words): 1 mg/mL in PBS; for Assembly without hydrophob residue: corresponding peptide without hydrophobic moiety; for Assembly: peptide amphiphile; for Fibril Formation: via TEM, hydrophobic moiety exchange
In short: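 Peptides predissolved in DMSO at 10 mg/mL (stock), diluted in PBS to 650 µM or 1 mg/mL final and incubated 1 d at rt (20–25 °C) to form fibrils. Other concentrations obtained by diluting preformed fibrils; assemblies imaged by TEM.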

Compound	β-sheet amount [1] [%]	association with cellular membranes (HeLa cells)	degradability (in words) (HeLa cells)	Degradability / % (rel. to initial particles > 10 µm^2) (HeLa cells) [%]	aggregate number decreases / degraded in presence of HeLa cells within 3 days (HeLa cells) [%]	enhances infectivity at 1.3 µM concentration, times more efficient compared to virus only infection (HIV-1) [times]	Infectivity enhancing N fold at 1.3 µM (HIV-1)	zeta-potential (in words) [2]	Count Rate / kcps [2] [kcps]	N-fold ThT-fluorescence [3]	Zeta-Potential / mV [4] [mV]	formation of µm-sized aggregates in aqueous medium / PBS (in words) [5]	fluorescent, µm-sized aggregates (ThT staining) [5]	TEM morphology (in words) [6]	Assembly without hydrophob residue [6]	Assembly [6]	Fibril Formation [6]	infectivity enhancement at 1.3 µM concentration compared to virus only infection (in words) (HIV-1)	enhancement of HIV-1 infection / transduction (in words) (HIV-1)	enhancement of HIV-1 infection / transduction (in words) (HIV-1; listed as peptide amphiphile with eicosapentaenoic acid (EPA))
CCCCCCCCCCCC(=O)N[C@H](C(=O)N[C@H](C(=O)N[C@H](C(=O)N[C@@H](C)C(=O)N[C@@H](C)C(=O)N[C@@H](C)C(=O)N[C@@H](CCCCN)C(=O)N[C@@H](CCCCN)C(=O)N[C@@H](CCCCN)C(N)=O)C(C)C)C(C)C)C(C)C [Pat7] (Lauroyl-VVVAAAKKK-NH2)	49	association with cellular membranes	non-degradable PA	-32	32	6	6±1 N fold	positive zeta-potential	3558.1	185.7	19.4	form µm-sized aggregates	fluorescent, µm-sized aggregates	able to form fibrils; also recorded: fibrillar morphologies	No	Yes	1			
CCCCCCCCC(=O)N[C@H](C(=O)N[C@H](C(=O)N[C@H](C(=O)N[C@@H](C)C(=O)N[C@@H](C)C(=O)N[C@@H](C)C(=O)N[C@@H](CCCCN)C(=O)N[C@@H](CCCCN)C(=O)N[C@@H](CCCCN)C(N)=O)C(C)C)C(C)C)C(C)C [Pat8] (Nonanoyl-VVVAAAKKK-NH2)	49	association with cellular membranes	non-degradable PA	78	78		2±0 N fold		77.2	37.1	13.5	failed to form µm-sized aggregates in aqueous medium	fluorescent, µm-sized aggregates	formed fibrils in aqueous medium; also recorded: fibrillar morphologies	No	Yes	1	does not enhance infectivity		
CC/C=C\C/C=C\C/C=C\C/C=C\C/C=C\CCCC(=O)N[C@H](C(=O)N[C@H](C(=O)N[C@H](C(=O)N[C@@H](C)C(=O)N[C@@H](C)C(=O)N[C@@H](C)C(=O)N[C@@H](CCCCN)C(=O)N[C@@H](CCCCN)C(=O)N[C@@H](CCCCN)C(N)=O)C(C)C)C(C)C)C(C)C [Pat10] (X1-VVVAAAKKK-NH2)	51	association with cellular membranes	degradable PA	99	99	12	12±1 N fold	positive zeta-potential	6069.8	61.9	16.9	form µm-sized aggregates	fluorescent, µm-sized aggregates	able to form fibrils; also recorded: condensed spherical structures composed of fibrils	No	Yes	1		showed infectivity enhancement	even stronger infectivity enhancement than the reference compounds EF-C or PA1
CCCCCCCCCCCCCCCC(=O)N[C@@H](C)C(=O)N[C@@H](CC(C)C)C(=O)N[C@@H](C)C(=O)N[C@@H](C)C(=O)NCC(=O)N[C@@H](CCCCN)C(=O)N[C@@H](CCCCN)C(N)=O [Pat20, C16-ALAAGKK-NH2] (Palmitoyl-ALAAGKK-NH2)	48	association with cellular membranes	degradable PA	87	87	5	5±1 N fold				20.2		fluorescent, µm-sized aggregates	fibrillar morphologies	No	Yes				
CCCCCCCCCCCCCCCC(=O)N[C@@H](CC(C)C)C(=O)N[C@@H](CC(C)C)C(=O)N[C@@H](CC(C)C)C(=O)N[C@@H](CCCCN)C(=O)N[C@@H](CCCCN)C(N)=O [Pat23, C16-LLLKK-NH2] (Palmitoyl-LLLKK-NH2)	46	association with cellular membranes	moderately degradable PA	27	27	3	3±0 N fold				20.9		fluorescent, µm-sized aggregates	fibrillar morphologies	No	Yes				
CCCCCCCCCCCCCCCC(=O)N[C@@H](C)C(=O)N[C@@H](CCCCN)C(=O)N[C@@H](C)C(=O)N[C@H](C(=O)NCC(=O)N[C@@H](CCCCN)C(N)=O)C(C)C [Pat31, C16-AKAVGK-NH2] (Palmitoyl-AKAVGK-NH2)	43	association with cellular membranes	degradable PA	89	89	6	6 N fold and 6±3 N fold				19.7		fluorescent, µm-sized aggregates	fibrillar morphologies	No	Yes				
Nap-VVVAAAKKK-NH2 ({2‑naphthylmethyl}-VVVAAAKKK-NH2; SMILES CC(C)[C@H](NCc1ccc2ccccc2c1)C(=O)N[C@H](C(=O)N[C@H](C(=O)N[C@@H](C)C(=O)N[C@@H](C)C(=O)N[C@@H](C)C(=O)N[C@@H](CCCCN)C(=O)N[C@@H](CCCCN)C(=O)N[C@@H](CCCCN)C(N)=O)C(C)C)C(C)C) [Pat13]	46						1±1 N fold	almost neutral zeta-potential	9.3	1.3	1.2	failed to form µm-sized aggregates in aqueous medium		formed fibrils in aqueous medium	No	Yes	1	does not enhance infectivity		
